# Reference: ChEMBL document CHEMBL1201862, “PubChem BioAssay data set” (2004)
# The source made the active and inactive calls. Rule as the data show it, for most assays here: actives have a measured EC50 and inactives only a lower limit.
# How the values were obtained:
# cells = type: functional
# [1] = target: T1, Calpain-2 catalytic subunit (Sus scrofa, UniProt P43367); experiment: pig calpain II inhibitor potency, dose response, biochemical, fluorogenic peptide substrate (AID 1420); type: functional
# T1 sequence (P43367 whole entry): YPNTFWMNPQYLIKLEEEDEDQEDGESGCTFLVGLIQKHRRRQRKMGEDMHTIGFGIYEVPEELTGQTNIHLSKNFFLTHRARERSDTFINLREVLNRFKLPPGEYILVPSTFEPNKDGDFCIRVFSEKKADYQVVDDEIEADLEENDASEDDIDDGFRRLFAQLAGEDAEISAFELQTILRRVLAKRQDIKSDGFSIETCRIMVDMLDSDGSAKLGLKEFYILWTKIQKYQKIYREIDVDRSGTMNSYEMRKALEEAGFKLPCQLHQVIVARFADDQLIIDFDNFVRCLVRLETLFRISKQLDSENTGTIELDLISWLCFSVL
# [2] = Luminescence Cell-Based Dose Retest to Confirm Inhibitors of Cancer Stem Cells. [Related pubchem assays (depositor defined):AID2717, AID2721]; type: functional; details: Homo sapiens
# [3] = NIH-3T3 fibroblast cytotoxicity, dose response, cytotoxicity control, cell-based, fluorescence, Alamar Blue, secondary assay (AID 2327); type: functional;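 also: NIH-3T3 mouse fibroblasts cultured with fluconazole at 8 µg/mL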
# [4] = C. albicans growth with fluconazole, confirmation, fluorescence, retest (AID 2467); type: functional, cell-based
# [5] = Luminescence Cell-Based Dose Confirmation HTS to Identify Activators of 5'UTR Stem-Loop Driven Alpha-Synuclein mRNA Translation in H4 Neuroglioblastoma Cells. [Related pubchem assays: 1829 (Project Summary), 1814 (Primary HTS)]; type: functional
# [6] = Luminescence Cell-Based Dose Response HTS to Identify Activators of Luciferase Translation or Activity in H4 […] Cells. [Related pubchem assays: 1829 (Project Summary), 1814 (Primary HTS)]; type: functional
# H4 = experiment: Luminescence Cell-Based Dose Response HTS to Identify Activators of 5'UTR Stem-Loop Driven Prion Protein mRNA Translation in H4 Neuroglioblastoma Cells. [Related pubchem assays: 1829 (Project Summary), 1814 (Primary HTS)]; type: functional; details: Homo sapiens
# [7] = HEp-2 cell cytotoxicity, dose response, cytotoxicity control for RSV inhibitor project, HTS (AID 2410); type: functional; details: human respiratory syncytial virus
# [8] = cytotoxicity toward NIH3T3 fibroblasts, dose response, counter-screen, cell-based, ATP luminescence, mouse fibroblasts (AID 2010); type: functional;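 also: cells exposed to compound for about 90 hours before reading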
# [9] = inhibitors of intracellular T. cruzi replication, confirmation, NIH3T3 host cells, beta-gal luminescence (AID 2044); type: functional, cell-based;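 also: intracellular parasites grown in NIH/3T3 mouse fibroblasts as host cells; luminescent beta-galactosidase reporter signal from transgenic T. cruzi replicating inside host cells; inhibitors lower the luminescence signal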
# [10] = growth suppression of PTEN-null colon cells, dose response, cell-based, HCT116 PTEN knockout (AID 1047); type: functional;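 also: HCT116 colon tumor cells with PTEN knocked out; cells exposed to compound for 60 hours before readout; potency for loss of cell viability measured by luminescence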
# [11] = control 3'UTR Renilla luciferase suppression, dose response, counter-screen for Shn3 inhibitor project, cell-based, Clone20-Shn3RL, cherry-picked (AID 624133); type: functional
# [12] = Shn3 3'UTR reporter inhibitors, dose response, cell-based, Clone20 osteoblasts, firefly luciferase, cherry-picked (AID 624132); type: functional;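 also: firefly luciferase luminescence from reporter carrying the Shn3 3'UTR in osteoblasts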
# Streptococcus = experiment: Group A Streptococcus viability loss, dose response, counter-screen for streptokinase expression inhibitor project, luminescence, BacTiterGlo (AID 1915); type: functional, organism-based;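 also: potency for reduction of bacterial viability or growth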
# [13] = system: Streptococcus sp. 'group A'; experiment: growth inhibition of control SK(-) GAS strain, dose response, counter-screen for streptokinase expression inhibitor project, luminescence, kanamycin, BacTiterGlo, confirmation (AID 1900); type: functional, organism-based
# Streptokinase A = target: T2, Streptokinase A (Streptococcus pyogenes serotype M1, UniProt P10520); experiment: S. pyogenes streptokinase expression inhibitors, potency, dose response, plasminogen activation absorbance, OD405 (AID 1914); type: functional, Streptococcus pyogenes M1 GAS;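 also: secreted streptokinase activity via plasminogen activation per viability signal from cell pellet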
# T2 sequence (P10520 whole entry): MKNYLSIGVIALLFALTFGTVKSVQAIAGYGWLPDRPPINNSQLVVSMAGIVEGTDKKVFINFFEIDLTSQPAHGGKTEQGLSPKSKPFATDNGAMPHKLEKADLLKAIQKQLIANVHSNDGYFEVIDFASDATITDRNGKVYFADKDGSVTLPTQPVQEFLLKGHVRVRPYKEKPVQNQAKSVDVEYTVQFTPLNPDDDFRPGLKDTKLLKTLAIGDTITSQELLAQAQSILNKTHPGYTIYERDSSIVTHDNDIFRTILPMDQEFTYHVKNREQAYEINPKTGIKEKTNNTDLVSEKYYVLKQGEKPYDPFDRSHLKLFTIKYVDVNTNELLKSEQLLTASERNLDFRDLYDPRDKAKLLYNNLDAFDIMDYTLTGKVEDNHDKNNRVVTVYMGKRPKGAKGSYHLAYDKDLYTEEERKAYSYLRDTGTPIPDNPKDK
# [14] = HepG2 cell cytotoxicity, dose response, cytotoxicity control for Shn3 inhibitor project, CellTiter-Glo, cherry-picked (AID 624134); type: functional, cell-based
# BJ [15] = experiment: cytotoxicity toward BJ-TERT fibroblasts, dose response, cell-based, RAS-independent, luminescence (AID 1933); type: functional; details: Homo sapiens
# BJ [16] = experiment: cytotoxicity toward BJ-TERT-LT-ST fibroblasts, dose response, cell-based, RAS-independent, luminescence (AID 1935); type: functional; details: Homo sapiens;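 also: BJ fibroblasts immortalized with TERT plus LT and ST oncogenes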
# [17] = cytotoxicity toward DRD oncogenic fibroblasts, dose response, cell-based, non-viral oncogenic, luminescence (AID 1934); type: functional; details: Homo sapiens
# BJ [18] = experiment: cells; type: functional, cell-based; details: Homo sapiens
# Paired box protein Pax-8 = Paired box protein Pax-8 (Homo sapiens, UniProt Q06710); experiment: inhibitors of PAX8-driven TPO luciferase reporter, dose response, RMG-I cells, cherry-pick (AID 687027); type: functional, cell-based;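 also: luciferase reporter driven by Pax8 target thyroperoxidase promoter measured by SteadyGlo luminescence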
# Sequence of Paired box protein Pax-8 (Q06710 whole entry): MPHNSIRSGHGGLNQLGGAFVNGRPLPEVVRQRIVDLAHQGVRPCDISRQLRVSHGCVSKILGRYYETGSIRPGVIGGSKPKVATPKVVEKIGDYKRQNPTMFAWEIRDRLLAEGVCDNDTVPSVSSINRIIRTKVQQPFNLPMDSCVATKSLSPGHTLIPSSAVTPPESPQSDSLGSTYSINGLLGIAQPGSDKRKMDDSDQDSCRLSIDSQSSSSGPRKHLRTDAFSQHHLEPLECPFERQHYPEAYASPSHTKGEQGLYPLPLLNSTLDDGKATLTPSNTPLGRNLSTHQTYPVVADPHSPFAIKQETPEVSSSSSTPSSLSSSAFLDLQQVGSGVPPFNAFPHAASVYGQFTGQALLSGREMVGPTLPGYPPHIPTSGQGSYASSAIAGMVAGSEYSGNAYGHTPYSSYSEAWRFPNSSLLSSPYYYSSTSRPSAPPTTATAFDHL
compound,measurement,setting,value
O=C(Oc1ccccc1)c1ccc(COC(=O)c2cnccn2)cc1,IC50,cells,6.29 µM (active)
Cc1ccc(-c2ccc([C@H]3[C@@H]4C=CCC[C@@]4(C)C(=O)N3Cc3ccccc3)c(F)c2)cc1,IC50,[1],3.65 µM (not active)
same,AC50,[2],3.55 µM (active)
Cc1onc(-c2c(F)cccc2Cl)c1C(=O)NNC(=O)C1CCN(Cc2ccccc2)CC1,EC50,[3],> 150 µM (inconclusive)
same,EC50,[4],> 38 µM (not active)
O=C1C(Cl)=C(NCCCN2CCOCC2)C(=O)N1CCc1ccccc1,EC50,[5],6.1 µM (active)
same,EC50,[6],15.3 µM (active)
same,EC50,H4,45.1 µM (active)
CCOc1ccc2nc(NC(=O)CSc3nc(SC)ns3)sc2c1,EC50,[5],12.7 µM (active)
same,EC50,[6],8.43 µM (active)
same,EC50,H4,47.5 µM (active)
COCc1nc(-c2ccc(-c3ccc(C)cc3)nc2OC)no1,EC50,[5],> 120 µM (not active)
same,EC50,[6],76 µM (active)
same,EC50,H4,14.2 µM (active)
O=C(O)/C=C/c1ccc(S(=O)(=O)Nc2ccc(C(=O)NCC(=O)O)cc2)cc1,EC50,[3],> 160 µM (inconclusive)
same,EC50,[4],> 38 µM (not active)
COc1ccc(C(=O)CCc2ccccc2O)c(OC)c1,CC50,[7],41.8 µM (active)
COc1cc(/C=C2/C(=O)NN(c3ccc(Cl)cc3)C2=O)cc(OC)c1O,EC50,[3],> 160 µM (inactive)
same,EC50,[4],2.27 µM (inconclusive)
CCOC(=O)c1cc2cc3ccccc3cc2oc1=O,IC50,cells,10.9 µM (active)
CCn1c(=O)[nH]c2ccccc2/c1=N/C(=O)c1ccc(F)cc1,CC50,[7],28 µM (active)
CSCCC(NS(=O)(=O)c1ccc(Cl)cc1)C(=O)OCC(=O)N1CCCc2ccccc21 (stereo unspecified),IC50,[1],14.6 µM (not active)
Cc1cc(C)nc(Nc2n[nH]c(-c3ccccc3Cl)n2)n1,EC50,[5],12.3 µM (active)
same,EC50,[6],19.8 µM (active)
same,EC50,H4,52.7 µM (inconclusive)
CCCCOC(=O)C1CCCC(C(=O)OCCCC)N1 (stereo unspecified),IC50,cells,16.6 µM (active)
Cc1cc(C(=O)OCC(=O)N2CCc3ccccc32)c(C)o1,EC50,[5],5.44 µM (active)
same,EC50,[6],21.6 µM (active)
same,EC50,H4,13.4 µM (active)
Oc1nc(-c2ccccn2)nc(C(F)(F)F)c1Br,EC50,[8],10.9 µM (active)
same,EC50,[3],> 150 µM (inactive)
same,EC50,[4],0.596 µM (active)
same,EC50,[9],1.86 µM (active)
O=C(Nc1ccc(-c2nc3ccccc3o2)cc1)c1cccnc1,EC50,[10],23.3 µM (active)
Cc1ncsc1CCOC(=O)C1C2CC3CC(C2)CC1C3 (stereo unspecified),IC50,[1],45.8 µM (not active)
CC/C(=C/c1ccccc1)c1cccc2[nH]c3c(OC)cccc3c12,AC50,[11],19 µM (active)
same,AC50,[12],32.8 µM (active)
same,EC50,Streptococcus,4.75 µM (active)
same,EC50,[13],1.87 µM (active)
same,EC50,Streptokinase A,19.6 µM (active)
same,AC50,[14],> 70 µM (inactive)
COc1ccc(C(=O)Nc2ccc(S(=O)(=O)NC(C)(C)C)cc2)cc1[N+](=O)[O-],IC50,[1],4.14 µM (not active)
COc1ccc(C(NC(=O)C(C)C)c2c(O)ccc3ccccc23)cc1OC (stereo unspecified),IC50,[1],18.4 µM (not active)
O=C(Nc1ccc2c(c1)OCCO2)C(=O)c1c[nH]c2ccccc12,EC50,BJ [15],14.2 µM (active)
same,AC50,[2],0.718 µM (active)
same,EC50,BJ [16],24.5 µM (inconclusive)
same,EC50,[17],4.19 µM (inconclusive)
same,EC50,BJ [18],28.3 µM (active)
Cc1ccc(-c2csc(/C=C3\SC(C)C(=O)N3CC(=O)Nc3ccccc3F)n2)cc1 (stereo unspecified),IC50,[1],10.6 µM (active)
CCCOc1cccc(-c2nnc(NC(=O)c3ccco3)s2)c1,EC50,[3],15.9 µM (active)
same,EC50,[4],1.91 µM (active)
Cc1cc(Br)ccc1SCC(=O)OCC(=O)c1c(N)n(C)c(=O)n(C)c1=O,IC50,[1],10.8 µM (active)
Cc1ccc(S(=O)(=O)NC(=Nc2ccccn2)c2ccc(Cl)cc2)cc1,EC50,[5],> 120 µM (not active)
same,EC50,[6],34.8 µM (active)
same,EC50,H4,> 120 µM (not active)
COc1cc(/C=C2/SC(=S)N(CC(=O)Nc3cccnc3)C2=O)cc(OC)c1OC,EC50,BJ [15],> 150 µM (not active)
same,EC50,BJ [16],> 150 µM (inconclusive)
same,EC50,[17],> 150 µM (not active)
same,EC50,BJ [18],> 150 µM (not active)
CCC(=O)OCC(=O)c1cc(C)n(-c2ccc(Br)cc2)c1C,IC50,[1],6.49 µM (not active)
CC(C)(C)c1ccc(C(=O)C2CCCN(Cc3ccon3)C2)cc1 (stereo unspecified),EC50,[5],14.6 µM (active)
same,EC50,[6],18.3 µM (active)
same,EC50,H4,17.2 µM (active)
Cc1cc(=O)oc2c(C)c(OCC(=O)N3CCN(c4cccc(Cl)c4)CC3)ccc12,CC50,[7],29.2 µM (active)
CCOc1ccc(NC2=NC(=O)CS2)cc1,CC50,[7],24.5 µM (active)
Oc1cccc(Nc2nc(-c3ccccc3)nc3ccccc23)c1,CC50,[7],13.3 µM (active)
O=C(CC1CC2CCC1C2)OCC(=O)c1c[nH]c2ccccc12 (stereo unspecified),IC50,[1],27.5 µM (not active)
CNc1nccc(-c2ccc(F)cc2)c1C#N,CC50,[7],47.5 µM (active)
N#Cc1cc(-c2ccccc2)[nH]c1-c1nccc2ccccc12,AC50,[11],9.62 µM (active)
same,AC50,[12],3.42 µM (active)
same,AC50,[14],48.7 µM (active)
CCCCNC(=O)Nc1c(C(=O)OC)[nH]c2ccc(C)cc12,EC50,[10],37.7 µM (active)
CCCC1=Nc2cc(C(=O)NCCCOC(C)C)ccc2Sc2ccccc21,EC50,BJ [15],9.44 µM (inconclusive)
same,EC50,BJ [16],17.2 µM (inconclusive)
same,EC50,[17],5.1 µM (active)
same,EC50,BJ [18],37.8 µM (active)
COc1ccc(S(=O)(=O)Oc2cccc(/C=N/NC3=NC(=O)C(CC(=O)O)S3)c2)cc1 (stereo unspecified),IC50,[1],> 50 µM (not active)
COc1ccc2nc(N3C(=O)C(O)=C(C(=O)c4ccco4)C3c3ccccc3OC)sc2c1 (stereo unspecified),EC50,[5],> 120 µM (not active)
same,EC50,[6],> 120 µM (not active)
same,EC50,H4,32.4 µM (active)
CCCCCCCCO/C(O)=C1\C(C)=Nc2nnnn2C1c1cccs1 (stereo unspecified),IC50,[1],3.59 µM (not active)
same,EC50,Streptococcus,7.3 µM (active)
same,EC50,[13],2.33 µM (active)
same,EC50,Streptokinase A,> 50 µM (not active)
same,AC50,[2],6.65 µM (active)
O=C1C[N+]([O-])=Cc2[nH]c3ccccc3c2N1c1ccc([N+](=O)[O-])cc1,IC50,[1],4.76 µM (not active)
CCOc1ccc(NC(=O)C(c2ccccn2)N(C(=O)CCl)c2ccc(OC)cc2)cc1 (stereo unspecified),EC50,BJ [15],> 150 µM (not active)
same,EC50,BJ [16],> 150 µM (inconclusive)
same,EC50,[17],> 150 µM (not active)
same,EC50,BJ [18],> 150 µM (not active)
CC(OC(=O)c1ccccc1Nc1ccc(SC(F)F)cc1)C(N)=O (stereo unspecified),IC50,[1],12 µM (not active)
C/C(=N\NC(=O)c1c(Cl)cnn1C)c1ccc(NC(=O)c2ccc(Br)o2)cc1,EC50,[5],6.11 µM (active)
same,EC50,[6],6.56 µM (active)
same,EC50,H4,28.4 µM (active)
CCN(CC)S(=O)(=O)c1ccc(C(=O)NCc2ccc3c(c2)OCO3)cc1,IC50,[1],> 50 µM (not active)
COc1ccc(C(=O)Nc2nc3ccc(OC)cc3s2)cc1,CC50,[7],21.5 µM (active)
CC(=O)O[C@@H]1[C@@H](O)[C@@H](O)[C@H](Oc2c(-c3ccc(O)cc3)oc3c(CC=C(C)C)c(O)cc(O)c3c2=O)O[C@H]1C,CC50,[7],16.1 µM (active)
Cc1cccc(OCCNc2cc(N3CCN(CCO)CC3)ccc2[N+](=O)[O-])c1,CC50,[7],15.6 µM (active)
CN1C(=O)/C(=C\C(=O)c2cccs2)c2ccccc21,EC50,[3],> 150 µM (inconclusive)
same,EC50,[4],> 38 µM (not active)
same,AC50,Paired box protein Pax-8,23.1 µM (active)
